The values below come from patent US10889812B2, “Short non-coding protein regulatory RNAs (sprRNAs) and methods of use” (University of Maryland, Baltimore, priority 2014, dated 2021).

Entries after “also recorded” stand apart in the source; their conditions may differ.

For data set [1], the system named is HBE4 cells. The experiment in a line: Trans-well invasion assay. The data set is classed as cell-based, human. Conditions: HBE4, 12 hrs, vs Scr, after 15% downward adjustment. An excerpt: We then tested the potential impact of piR-L-163 in cell migration and invasion, two of the properties involving ERM's biological functions (Fehon, R. G., Mclatchey, A. I. & Bretscher, A. Organizing the cell cortex: the role of ERM proteins. Nat Rev Mol Cell Biol. 11, 276-287 (2010); Hunter, K. W. Ezrin, a key component in tumor metastasis. Trends Mol. Med. 10, 201-204 (2004); Luo, Y. et al. Recognition of CD146 as an ERM-binding protein offers novel mechanisms for melanoma cell migration. Oncogene 31, 306-321 (2013); Clucas, J. & Valderrama, F. ERM proteins in cancer progression. J Cell Sci. 128, 1253 (2015)).
Briefly, 24 hrs after transfection, 6×10^4 cells were placed in the upper chamber of Matrigel Invasion Chambers (BD Bioscience) with growth factor-free Keratinocyte-SFM and the bottom chamber were exposed to Keratinocyte-SFM medium supplemented with L-Glutamine, prequalified human recombinant EGF 1-53 and BPE. Invading cells were evaluated after 12 hrs according to the manufacturer's instruction. The numbers of invading cells were adjusted 15% downwards for Ant-163 treated cells or 15% upwards for piR-L-163 treated cells to compensate the differences for the proliferation rates.

In data set [2] the test system is HBE4 cells. In words: Wound healing assay (gap closure). The data set is classed as cell-based, human. The following applies: HBE4, vs Scr control. An excerpt: (§1) For cell migration, we used two complementary assays. […] To compensate potential differences in the cell numbers among different treatment conditions, we seeded 10% less cells for Ant-163 treated HBE4 cells and 10% more cells for piR-L-163 transfected H1792 cells.
(§2) Two complimentary methods were used. For quantitative fluorescent dye assay, Innocyto™ Cell migration Assay kit (EMD Millipore) was used. Briefly, 24 hrs after treatment, 1×10^5 cells (10% less for Ant-163 treated cells or 10% more for piR-L-163 treated cells) were loaded to the upper chamber with growth factor-free Keratinocyte-SFM for (HBE4 cells) or serum-free DMEM (for H1792 cells) with the bottom chamber exposed to completed culture medium. Negative controls were used with 3 μM Latrunculin A. After 12 hrs incubation, fluorescence was measured using a fluorescence plate reader 485 nm (excitation) and 520 nm (emission) according to the manufacturer's instruction. For wound-healing assay, cells (24 hrs after treatment with different DNA or RNA oligonucleotides) were grown to confluence followed by scratching with a pipette tip to create a gap. The floating cells were removed and the gaps were monitored/photographed every 12 hrs.

Data set [3] relates to H1792 cells. The experiment in a line: Wound healing assay (gap closure). The data set is classed as cell-based, human. The following applies: H1792, vs Scr control, Ant-163 or a mutant piR-L-163.
Description: as §1, §2

Data set [4] deals with T1, wild-type human moesin (Moesin-WT) (Homo sapiens, UniProt P26038).
T1 construct: expressed in transfected cells; host or cells: H522 cells, pcDNA3.1(+) plasmid
In words: IP/RT-PCR binding to introduced moesin in H522 cells. Conditions: H522 cells co-transfected. An excerpt:
(§3) To determine potential element of ERM proteins critical for their binding with piR-L-163, we analyzed human and Drosophila moesin sequences using BindN (http://bioinfo.ggc.org/bindn/) and identified RRRKPDT (SEQ ID NO:488) at position 293-299 as a candidate RNA binding element (FIG. 12a, b). We then constructed plasmids containing either wild-type human moesin (Moesin-WT) or a mutant form of moesin with RRRKPDT (SEQ ID NO:488) deletion (Moesin-DM). Both plasmids produce high levels of moesin proteins in the transfected cells (FIG. 5d). We used two cell lines (H522 and HBE4) to test if this element contributes to the binding between moesin and piR-L-163. H522 cells expressed extremely low level of endogenous p-ERM (FIG. 5c) and very low level of piR-L-163 (FIG. 11a). H522 cells transfected with piR-L-163 were simultaneously transfected with either Moesin-WT or Moesin-DM to determine the potential binding ability of the introduced moesin proteins with piR-L-163. We also used the non-functional piR-L-163M1 mutant to replace piR-L-163 in the experiment as a negative control. […] We next transfected HBE4 cells which expressed both p-ERM and piR-L-163 (FIG. 4e and FIG. 11a) with either Moesin-WT or Moesin-DM after knocked down the endogenous moesin in the cells. […]

The target in data set [5] is T2, mutant form of moesin with RRRKPDT deletion (Moesin-DM) (Homo sapiens, UniProt P26038, DEL293-299).
T2 construct: expressed in transfected cells; host or cells: H522 cells, pcDNA3.1(+) plasmid
The data set is described as above. Conditions: H522 cells co-transfected.
Description: as §3

T2 sequence (P26038 with tags, fused parts or gaps DEL293-299): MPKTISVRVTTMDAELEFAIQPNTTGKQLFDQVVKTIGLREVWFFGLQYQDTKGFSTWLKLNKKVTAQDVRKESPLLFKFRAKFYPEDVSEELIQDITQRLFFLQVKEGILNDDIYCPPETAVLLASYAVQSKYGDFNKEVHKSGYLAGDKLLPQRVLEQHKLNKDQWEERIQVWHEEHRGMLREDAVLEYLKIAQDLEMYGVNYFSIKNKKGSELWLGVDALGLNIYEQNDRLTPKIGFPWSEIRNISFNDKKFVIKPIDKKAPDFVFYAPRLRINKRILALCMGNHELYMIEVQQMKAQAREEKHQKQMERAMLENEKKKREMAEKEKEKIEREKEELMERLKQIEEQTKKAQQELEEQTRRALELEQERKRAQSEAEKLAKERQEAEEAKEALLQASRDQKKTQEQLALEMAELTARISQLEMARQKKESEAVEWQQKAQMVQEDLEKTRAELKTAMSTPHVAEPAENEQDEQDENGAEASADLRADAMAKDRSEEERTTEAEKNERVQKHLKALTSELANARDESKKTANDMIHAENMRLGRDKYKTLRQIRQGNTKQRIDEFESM
T1 sequence (P26038 whole entry): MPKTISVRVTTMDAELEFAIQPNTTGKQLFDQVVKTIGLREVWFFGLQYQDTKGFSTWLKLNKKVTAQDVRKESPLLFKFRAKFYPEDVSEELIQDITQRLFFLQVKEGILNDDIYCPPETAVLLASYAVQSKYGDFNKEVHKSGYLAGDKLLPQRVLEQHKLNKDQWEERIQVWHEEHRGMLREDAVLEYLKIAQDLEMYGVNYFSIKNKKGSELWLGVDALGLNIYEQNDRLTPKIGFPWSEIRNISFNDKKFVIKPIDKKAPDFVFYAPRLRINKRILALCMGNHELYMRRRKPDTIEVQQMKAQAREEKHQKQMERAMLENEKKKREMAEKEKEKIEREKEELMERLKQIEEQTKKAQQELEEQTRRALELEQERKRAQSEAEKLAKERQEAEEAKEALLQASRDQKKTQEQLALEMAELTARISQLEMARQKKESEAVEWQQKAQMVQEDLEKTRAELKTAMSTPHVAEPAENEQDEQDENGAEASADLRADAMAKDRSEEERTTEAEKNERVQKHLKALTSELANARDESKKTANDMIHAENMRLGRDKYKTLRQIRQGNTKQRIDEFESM

As for “Ant-163: DNA sequence antisense to piR-L-163, SEQ ID NO:496, 5′-GGTCAGAGAATCAAAGTAACATCATGATAT-3′ (DNA, backbone and methylation of C not given here)”, the invasion capability result in data set [1] is listed as “significantly increased invasion capability; also recorded: increased invading cells”. The gap closure result in data set [2] is on record as “faster gap closure”.
For “piR-L-163: sprRNA, SEQ ID NO:282; piRNA-L aligned to intron 10 of LAMC2; AUAUCAUGAUGUUACUUUGAUUCUCUGACC with 3′ 2′-O-methylation (listed as RNA, chemistry not fully specified; listed as Homo sapiens)”, the gap closure result in data set [3] was “slower gap closure”. Moreover, the “binding to Moesin-WT” value in data set [4] is given as “bound to piR-L-163”. Moreover, the “binding to Moesin-DM” value in data set [5] is “failed to bind”.
